Assay results: US11541065B2, “Compositions and methods for treating brain injury” (UNM RAINFOREST INNOVATIONS, priority 2018, dated 2023)

Legend:
[1] = tested on: rat cortical neuronal cultures; test: Neuronal cell death by Hoechst DNA staining, rat cortical neuron cultures; format: cell-based
Protocol: Neurons were subjected to staining with Hoechst 33342 dye for 15 minutes, washed extensively with PBS, and analyzed using fluorescent microscopy to assess nuclear damage. Imaging was performed with a Zeiss Axiovert 200M fluorescence microscope with attached AxioCam CCD camera using 20× objective lens (Carl Zeiss, Thomwood, N.Y.). To quantitatively assess the percentage of pyknotic nuclei a total of 1000 cells were counted for each set of experiments. Mean±SEM (n=3) were used for statistical comparison using ANOVA (Bonferroni's multiple comparison test). Differences were considered significant when p<0.05.
[…] Glutamate treated cells were then maintained in their original medium for another 17 hours. For some experiments, neurons were treated with L-homocysteine or glutamate in the presence of NVP-AAM077 or PD98059. The neurons were then fixed and stained with Hoechst 33342 dye as previously described (Poddar and Paul, 2009, J Neurochem 110:1095-1106). Percentage of pyknotic nuclei was quantitatively assessed by fluorescent microscopy to determine the extent of neuronal death.

[2] = tested on: control and hyperhomocysteinemic rats subjected to MCAO; test: MCAO (60 min) and reperfusion; infarct size and structural integrity by MRI (T2, ADC, FA maps); format: in vivo, male Wistar rats; details: for total infarct volume (T2 maps): 24 hours after MCAO
Protocol: Middle cerebral artery occlusion (MCAO) was performed on both male rats and mice. For rat studies, control and hyperhomocysteinemic male Wistar rats (8-9 weeks, 290-295 g) were subjected to MCAO under anesthesia (2% isoflurane in medical grade oxygen), using the intraluminal method as previously described (Candelario-Jalil, E., et al., 2004, Brain Res 1007:98-108; Deb et al., 2013, J Neurosci 33:17814-17826). Briefly, the right common carotid artery (CCA) was exposed through an incision made in the ventral midline neck region. To prevent improper insertion of the occluding filament, both the external carotid artery and pterygopalatine branch of the internal carotid artery were clipped. A silicon-rubber-coated monofilament (403756, Doccol Corp., Sharon, Mass.) was inserted into the internal carotid artery through an incision made in the CCA, 2 mm proximal from the bifurcation of the CCA, and advanced 18-19 mm from the bifurcation, to occlude the origin of the anterior cerebral, middle cerebral, and posterior communicating arteries. The incision was closed and the rats were allowed to recover from anesthesia. A quick assessment of neurological deficit was done immediately prior to reperfusion and only those animals that had more than 50% of contralateral forelimb flexion and walked in circles to the contralateral side were considered for the study, as previously described (Longa et al., 1989, Stroke 20:84-91). Following 60 minutes of occlusion, the rats were anesthetized and the filament was gently retracted to allow reperfusion. The incision was closed and the rats were allowed to recover from anesthesia. A subset of control and hyperhomocysteinemic rats received a single intravenous injection of GluN2A-NMDAR selective inhibitor NVP-AAM077 (1.2 mg/kg body weight) through the femoral vein, and another subset received a single intraperitoneal injection of GluN2B-NMDAR inhibitor Ro 256981 (6 mg/kg body weight), as previously described (Chaperon et al., 2003, Behav Pharmacol 14:477-87; Fox et al., 2006, Hippocampus 16:907-015). Both NVP-AAM077 and Ro 256981 were administered at the onset of ischemic insult. The rats were then subjected to MRI on days 1, 3, and 14 post-MCAO and a series of behavioral tests was performed between days 7-9 post-MCAO.
Multimodal MRI of rat brain that includes relaxation time imaging and diffusion imaging was performed at 1, 3 and 14 days after MCAO and reperfusion. The rats were placed in a dedicated holder and positioned in the isocenter of a 4.7-Tesla MRI scanner (Bruker Biospin) that is equipped with a 40-cm bore and a gradient of 660 mT/m at rise time within […]. To obtain good signal-to-noise ratio, a small-bore linear RF coil (inner diameter=72 mm) was used for signal excitation, and a single tuned surface coil (RAPID Biomedical, Rimpar, Germany) was used for signal detection (Sood et al., 2009, J Cereb Blood Flow Metab 29:308-316; Taheri, S. and Sood, R., 2007, Magn Reson Imaging 25:613-625; Yang et al., 2013 J Cereb Blood Flow Metab 33:1104-1114). For mice, the MRI was performed only at day 1. The mice were placed in its dedicated holder of inner diameter 72 mm in the 4.7-Tesla MRI scanner with a 40-cm bore size and a gradient rise time/maximum speed of 9000 T/m/s. During MRI, the rats and mice were kept anesthetized with 2% isoflurane in medical grade oxygen. Respiration and heart rate were monitored continuously and body temperature was maintained at 37.0±0.5° C.
For rats, T2-weighted images were acquired with a rapid acquisition with relaxation enhancement (RARE) sequence of Repetition Time (TR)/Echo Time (TE)=5,000 ms/56 ms, Field of View (FOV)=4 cm×4 cm, slice thickness=1 mm, inter-slice distance=1.1 mm, number of slices=12, matrix=256×256 and number of average=3. For mice, T2 weighted images were acquired with a RARE sequence of Repetition Time/Echo Time=5,000 ms/56 ms, Field of View=4 cm×4 cm, slice thickness=1 mm, number of slices=12, matrix=256×256 and number of average=3. […]

ERK MAPK = ERK MAPK phosphorylation during oxygen-glucose deprivation (OGD) in rat cortical neuron cultures; format: cell-based; details: rat cortical neurons
Protocol: Equal protein from total cell lysates obtained from rat and mice neuronal cultures were resolved in 7.5% SDS-PAGE, and subjected to immunoblotting procedure as described earlier (Podder and Paul, 2009, J Neurochem 110:1095-1106). Blots were analyzed with antibodies as described in each experiment. All primary antibodies (anti-pERK, anti-ERK) and secondary-horse radish peroxidase conjugated antibody concentrations were used according to recommendations provided by the manufacturer. Signals from immune complexes in the blots were developed using West Pico supersignal chemiluminescence reagents and then captured on X-ray films. Densitometric analysis of the images was performed using the Image J software.
At specified time periods (one hour, two hours, and three hours) during OGD alone or OGD in the presence of L-Hcy (50 μM), cells were removed from the chamber and lysed for immunoblot analysis. Some cultures were treated with L-Hcy (three hours) during the OGD insult in the presence or absence of NVP-AAM077 (30 nM; 3 h). […] Cells were then subjected to staining with Hoechst 33342 dye for 15 minutes, washed extensively with PBS, and analyzed using fluorescent microscopy to assess nuclear damage. To quantitatively assess the percentage of pyknotic nuclei, a total of 1000 cells were counted for each set of experiments (Poddar et al., 2010, J Neurochem 115, 1350-1362).

[3] = control rats, single injection at onset of ischemic insult (NVP-AAM077 1.2 mg/kg; Ro 256981 6 mg/kg), untreated control 18.65±2.89%
[4] = hyperhomocysteinemic (HHcy) rats, single injection at onset of insult (NVP-AAM077 1.2 mg/kg; Ro 256981 6 mg/kg), untreated HHcy 37.41±2.33%

## C[C@H](NC(c1cccc2[nH]c(=O)c(=O)[nH]c12)P(=O)(O)O)c1ccc(Br)cc1 (stereo partly drawn) [NVP-AAM077, ({[(1S)-1-(4-bromophenyl)ethyl]amino}-(2,3-dioxo-1,4-dihydroquinoxalin-5-yl)methyl)phosphonic acid]
[1]; rat cortical neurons, L-homocysteine 50 μM 24 hours, NVP-AAM077 30 nM
  effect on homocysteine-induced apoptotic cells: significantly reduced the number of apoptotic cells
[1]; rat neurons, L-homocysteine 50 μM 18 hours, with NVP-AAM077 30 nM or PD98059 15 μM
  effect on homocysteine-induced neuronal death: Significantly Reduces Homocysteine-Induced Neuronal Death
[2]; HHcy rats, day 3 after MCAO, NVP-AAM077 1.2 mg/kg, untreated HHcy 38.63±2.75%
  lesion volume (T2 maps): 19.61±4.48%
[2]; HHcy rats, day 14 after MCAO, NVP-AAM077 1.2 mg/kg, untreated HHcy 0.25±0.01
  FA value in the infarcted area: 0.32±0.01
[2]; HHcy rats, day 14 after MCAO, NVP-AAM077 1.2 mg/kg, untreated HHcy 27.16±2.18%
  lesion volume (T2 maps): 10.76±2.40%
[2]; [3]
  total infarct volume (T2 maps): 16.07±2.8%
[2]; [4]
  total infarct volume (T2 maps): 17.98±3.24%
ERK MAPK; OGD and L-Hcy 50 μM three hours, NVP-AAM077 30 nM
  effect on ERK MAPK activation by OGD plus L-homocysteine: inhibits the activation of ERK MAPK

## C[C@@H](CN1CCC(Cc2ccccc2)CC1)[C@@H](O)c1ccc(O)cc1 [Ro 25-6981]
[2]; [3]
  total infarct volume (T2 maps): 7.46±1.24%
[2]; [4]
  total infarct volume (T2 maps): 32.48±4.32%

## N[C@@H](CCS)C(=O)O [L-homocysteine]
[1]; rat cortical neurons, L-homocysteine 50 μM, 24 hours, alone vs untreated controls
  number of apoptotic cells (pyknotic nuclei): significant increase in the number of apoptotic cells
[1]; rat neurons, L-homocysteine 50 μM, 18 h, alone
  cell death (pyknotic nuclei): significant increase in cell death
ERK MAPK; OGD in the presence of L-Hcy 50 μM, time course up to three hours
  ERK MAPK phosphorylation during OGD: causes sustained ERK MAPK phosphorylation
